Results as given in the supplement of paper PMC4862054.

Assays:
Experiment in all cases: normalised response (% of control), CellTox Green; higher = less cell death (100 = DMSO, 0 = benzethonium chloride kill control)
Conditions in all cases: incubation time: 72 h
BT-474 = tested on: BT-474
Method in brief: (§1)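 The table gives the normalised signal for a single concentration in each entry. Breast cancer cell lines were seeded (20 µl suspension) into 384-well plates holding compound at 5 concentrations in 10-fold steps over a compound-specific 10,000-fold range and incubated 72 h, then read for CellTox Green fluorescence (485/520 nm) and CellTiter-Glo luminescence. Normalisation on each plate used 0.1 % DMSO (100) and a positive kill control (0).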

BT-549 = tested on: BT-549
Method in brief: as §1

CAL-120 = tested on: CAL-120
Method in brief: as §1

CAL-148 = tested on: CAL-148
Method in brief: as §1

DU-4475 = tested on: DU-4475
Method in brief: as §1

HCC1599 = tested on: HCC1599
Method in brief: as §1

MDA-MB-231 = tested on: MDA-MB-231
Method in brief: as §1

MDA-MB-436 = tested on: MDA-MB-436
Method in brief: as §1

MDA-MB-453 = tested on: MDA-MB-453
Method in brief: as §1

MDA-MB-468 = tested on: MDA-MB-468
Method in brief: as §1

| SMILES | normalised response (BT-474) | normalised response (BT-549) | normalised response (CAL-120) | normalised response (CAL-148) | normalised response (DU-4475) | normalised response (HCC1599) | normalised response (MDA-MB-231) | normalised response (MDA-MB-436) | normalised response (MDA-MB-453) | normalised response (MDA-MB-468) |
| --- | --- | --- | --- | --- | --- | --- | --- | --- | --- | --- |
| Nc1ccn([C@@H]2O[C@H](CO)[C@@H](O)C2(F)F)c(=O)n1 [Gemcitabine] (100 nM) | 98.1% | 95% | 100% | 48.3% | 98.8% | 87.5% | 101% | 58.6% | 110% | 28.4% |
| Nc1ccn([C@@H]2O[C@H](CO)[C@@H](O)C2(F)F)c(=O)n1 [Gemcitabine] (1000 nM) | 104% | 88.8% | 96.3% | 61.1% | 96.9% | 86.5% | 75.5% | 89.8% | 97.7% | 122% |
| CC(C)C[C@H](NC(=O)[C@@H](COC(C)(C)C)NC(=O)[C@H](Cc1ccc(O)cc1)NC(=O)[C@H](CO)NC(=O)[C@H](Cc1c[nH]c2ccccc12)NC(=O)[C@H](Cc1cnc[nH]1)NC(=O)[C@@H]1CCC(=O)N1)C(=O)N[C@@H](CCCNC(=N)N)C(=O)N1CCC[C@H]1C(=O)NNC(N)=O [Goserelin] (1000 nM) | 99.8% | 124% | 102% | 102% | 96.9% | 98.4% | – | 92.4% | 107% | 158% |
| CC(C)C[C@H](NC(=O)[C@@H](COC(C)(C)C)NC(=O)[C@H](Cc1ccc(O)cc1)NC(=O)[C@H](CO)NC(=O)[C@H](Cc1c[nH]c2ccccc12)NC(=O)[C@H](Cc1cnc[nH]1)NC(=O)[C@@H]1CCC(=O)N1)C(=O)N[C@@H](CCCNC(=N)N)C(=O)N1CCC[C@H]1C(=O)NNC(N)=O [Goserelin] (10000 nM) | 84.2% | 107% | 98% | 104% | 98.9% | 95.5% | 94.9% | 90.3% | 95% | 181% |
| CC(=O)[C@]1(O)Cc2c(O)c3c(c(O)c2[C@@H](O[C@H]2C[C@H](N)[C@H](O)[C@H](C)O2)C1)C(=O)c1ccccc1C3=O [Idarubicin] (100 nM) | 72.2% | 98.7% | 98.8% | 36% | 95.2% | 101% | 114% | 40.4% | 108% | 49.4% |
| CC(=O)[C@]1(O)Cc2c(O)c3c(c(O)c2[C@@H](O[C@H]2C[C@H](N)[C@H](O)[C@H](C)O2)C1)C(=O)c1ccccc1C3=O [Idarubicin] (1000 nM) | 65.2% | 84.2% | 55.6% | 28.9% | 81.7% | 109% | 77.7% | 83.7% | 106% | 18.9% |
| C/C(=C\c1csc(C)n1)[C@@H]1C[C@@H]2O[C@]2(C)CCC[C@H](C)[C@H](O)[C@@H](C)C(=O)C(C)(C)[C@@H](O)CC(=O)N1 [Ixabepilone] (100 nM) | 100% | 65.6% | 105% | 102% | 103% | 102% | 102% | 106% | 107% | 83% |
| C/C(=C\c1csc(C)n1)[C@@H]1C[C@@H]2O[C@]2(C)CCC[C@H](C)[C@H](O)[C@@H](C)C(=O)C(C)(C)[C@@H](O)CC(=O)N1 [Ixabepilone] (1000 nM) | 58.1% | 62.7% | 99.3% | 100% | 101% | 104% | 55% | 103% | 101% | 87.1% |
| C=CCn1c(=O)c2cnc(Nc3ccc(N4CCN(C)CC4)cc3)nc2n1-c1cccc(C(C)(C)O)n1 [MK1775] (1000 nM) | 68.6% | 74.9% | 79.1% | -11.1% | 87% | 67.4% | -98.4% | 29.9% | 93.3% | 56.5% |
| C=CCn1c(=O)c2cnc(Nc3ccc(N4CCN(C)CC4)cc3)nc2n1-c1cccc(C(C)(C)O)n1 [MK1775] (10000 nM) | 44.8% | 14.7% | 53.2% | 22.7% | 85.3% | 66.1% | -15.5% | 67.1% | 89.7% | 45% |
| CO[C@@H]1[C@H](N(C)C(=O)c2ccccc2)C[C@H]2O[C@]1(C)n1c3ccccc3c3c4c(c5c6ccccc6n2c5c31)C(=O)NC4 [Midostaurin] (1000 nM) | 83.7% | 54% | 91.7% | 67.4% | 87.7% | 74% | 61.2% | 77.3% | 107% | -9.58% |
| CO[C@@H]1[C@H](N(C)C(=O)c2ccccc2)C[C@H]2O[C@]1(C)n1c3ccccc3c3c4c(c5c6ccccc6n2c5c31)C(=O)NC4 [Midostaurin] (10000 nM) | 87.9% | 25.2% | 80.8% | 66.4% | 88.6% | 81.2% | 60.6% | 83.6% | 91.6% | 0.55% |
| CO[C@@]12[C@H](COC(N)=O)C3=C(C(=O)C(C)=C(N)C3=O)N1C[C@@H]1N[C@@H]12 [Mitomycin C] (1000 nM) | 94.9% | 123% | 100% | 97.8% | 94.7% | 98.1% | 97.1% | 78.8% | 100% | – |
| CO[C@@]12[C@H](COC(N)=O)C3=C(C(=O)C(C)=C(N)C3=O)N1C[C@@H]1N[C@@H]12 [Mitomycin C] (10000 nM) | 101% | 99.5% | 98.4% | 42.2% | 94.7% | 99.1% | 101% | 90.2% | 104% | 5.66% |
| CCNC(=O)c1noc(-c2cc(C(C)C)c(O)cc2O)c1-c1ccc(CN2CCOCC2)cc1 [NVP-AUY922] (100 nM) | 80% | 140% | 90.3% | 21.6% | 65.5% | 86.9% | 46.7% | 67.1% | 96.2% | 31.9% |
| CCNC(=O)c1noc(-c2cc(C(C)C)c(O)cc2O)c1-c1ccc(CN2CCOCC2)cc1 [NVP-AUY922] (1000 nM) | 55.9% | 117% | 88.4% | 42.9% | 72.5% | 97.9% | 52.9% | 107% | 89% | 112% |
